Source: PubChem BioAssay (NCI)
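96-well plates; 48 h exposure; 5 concentrations. Endpoints by linear interpolation between flanking doses. Not reached: highest tested concentration assigned. Definition used: TGI = concentration required for complete inhibition of growth.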

Tests used:
Test in all cases: NCI anticancer screen, dose series, 48 h
SF-539 CNS = system: SF-539 CNS
UACC-62 melanoma = system: UACC-62 melanoma
DMS 273 small cell lung = system: DMS 273 small cell lung
HCT-15 colon = system: HCT-15 colon
SK-MEL-2 melanoma = system: SK-MEL-2 melanoma
HCT-116 colon = system: HCT-116 colon
M14 melanoma = system: M14 melanoma
SF-295 CNS = system: SF-295 CNS
DMS 114 small cell lung = system: DMS 114 small cell lung
MOLT-4 leukemia = system: MOLT-4 leukemia
HT29 colon = system: HT29 colon
HCC-2998 colon = system: HCC-2998 colon
SK-OV-3 ovarian = system: SK-OV-3 ovarian
CAKI-1 renal = system: CAKI-1 renal
786-0 renal = system: 786-0 renal
HL-60(TB) leukemia = system: HL-60(TB) leukemia
CCRF-CEM leukemia = system: CCRF-CEM leukemia
SN12C renal = system: SN12C renal
HOP-62 NSCLC = system: HOP-62 NSCLC
DLD-1 colon = system: DLD-1 colon
SK-MEL-28 melanoma = system: SK-MEL-28 melanoma
SF-268 CNS = system: SF-268 CNS
OVCAR-3 ovarian = system: OVCAR-3 ovarian
ACHN renal = system: ACHN renal
M19-MEL melanoma = system: M19-MEL melanoma
HOP-92 NSCLC = system: HOP-92 NSCLC
NCI-H460 lung = system: NCI-H460 lung
SNB-19 CNS = system: SNB-19 CNS
LXFL 529 NSCLC = system: LXFL 529 NSCLC
OVCAR-4 ovarian = system: OVCAR-4 ovarian
COLO 205 colon = system: COLO 205 colon
SK-MEL-5 melanoma = system: SK-MEL-5 melanoma
NCI-H522 lung = system: NCI-H522 lung
XF 498 CNS = system: XF 498 CNS
RXF 393 renal = system: RXF 393 renal
U251 CNS = system: U251 CNS
RPMI-8226 leukemia = system: RPMI-8226 leukemia
SNB-78 CNS = system: SNB-78 CNS
EKVX NSCLC = system: EKVX NSCLC
HOP-18 NSCLC = system: HOP-18 NSCLC
KM20L2 colon = system: KM20L2 colon
TK-10 renal = system: TK-10 renal
UACC-257 melanoma = system: UACC-257 melanoma
SW-620 colon = system: SW-620 colon
OVCAR-8 ovarian = system: OVCAR-8 ovarian
OVCAR-5 ovarian = system: OVCAR-5 ovarian
K-562 leukemia = system: K-562 leukemia
NCI-H23 lung = system: NCI-H23 lung
A498 renal = system: A498 renal
IGROV1 ovarian = system: IGROV1 ovarian
SNB-75 CNS = system: SNB-75 CNS
A549 NSCLC = system: A549 NSCLC
MALME-3M melanoma = system: MALME-3M melanoma
RXF-631 renal = system: RXF-631 renal
UO-31 renal = system: UO-31 renal
KM12 colon = system: KM12 colon
NCI-H226 lung = system: NCI-H226 lung
LOX IMVI melanoma = system: LOX IMVI melanoma

Q: Which TGI (SF-539 CNS) does the source give for `CCC1N2CCCCC2[C@@H]2c3[nH]c4ccccc4c3CCN12` (stereo not given in full) here?
A: > 100 µM

Q: And the TGI (UACC-62 melanoma)?
A: > 100 µM

Q: What about the TGI (DMS 273 small cell lung) of the same compound?
A: > 100 µM

Q: And the TGI (HCT-15 colon)?
A: > 100 µM

Q: And the TGI (SK-MEL-2 melanoma)?
A: > 100 µM

Q: What about the TGI (HCT-116 colon) of the same compound?
A: > 100 µM

Q: And the TGI (M14 melanoma)?
A: > 100 µM

Q: And the TGI (SF-295 CNS)?
A: > 100 µM

Q: And the TGI (DMS 114 small cell lung)?
A: > 100 µM

Q: And the TGI (MOLT-4 leukemia)?
A: > 100 µM

Q: What about the TGI (HT29 colon) of the same compound?
A: > 100 µM

Q: And the TGI (HCC-2998 colon)?
A: > 100 µM

Q: What about the TGI (SK-OV-3 ovarian) of the same compound?
A: > 100 µM

Q: What about the TGI (CAKI-1 renal) of the same compound?
A: > 100 µM

Q: And the TGI (786-0 renal)?
A: > 100 µM

Q: And the TGI (HL-60(TB) leukemia)?
A: > 100 µM

Q: What about the TGI (CCRF-CEM leukemia) of the same compound?
A: > 100 µM

Q: And the TGI (SN12C renal)?
A: > 100 µM

Q: And the TGI (HOP-62 NSCLC)?
A: > 100 µM

Q: And the TGI (DLD-1 colon)?
A: > 100 µM

Q: And the TGI (SK-MEL-28 melanoma)?
A: > 100 µM

Q: And the TGI (SF-268 CNS)?
A: > 100 µM

Q: And the TGI (OVCAR-3 ovarian)?
A: > 100 µM

Q: What about the TGI (ACHN renal) of the same compound?
A: > 100 µM

Q: What about the TGI (M19-MEL melanoma) of the same compound?
A: > 100 µM

Q: What about the TGI (HOP-92 NSCLC) of the same compound?
A: > 100 µM

Q: What about the TGI (NCI-H460 lung) of the same compound?
A: > 100 µM

Q: And the TGI (SNB-19 CNS)?
A: > 100 µM

Q: What about the TGI (LXFL 529 NSCLC) of the same compound?
A: > 100 µM

Q: And the TGI (OVCAR-4 ovarian)?
A: > 100 µM

Q: What about the TGI (COLO 205 colon) of the same compound?
A: > 100 µM

Q: And the TGI (SK-MEL-5 melanoma)?
A: > 100 µM

Q: What about the TGI (NCI-H522 lung) of the same compound?
A: > 100 µM

Q: What about the TGI (XF 498 CNS) of the same compound?
A: > 100 µM

Q: What about the TGI (RXF 393 renal) of the same compound?
A: > 100 µM

Q: And the TGI (U251 CNS)?
A: > 100 µM

Q: And the TGI (RPMI-8226 leukemia)?
A: > 100 µM

Q: What about the TGI (SNB-78 CNS) of the same compound?
A: > 100 µM

Q: And the TGI (EKVX NSCLC)?
A: > 100 µM

Q: And the TGI (HOP-18 NSCLC)?
A: > 100 µM

Q: What about the TGI (KM20L2 colon) of the same compound?
A: > 100 µM

Q: What about the TGI (TK-10 renal) of the same compound?
A: > 100 µM

Q: And the TGI (UACC-257 melanoma)?
A: > 100 µM

Q: What about the TGI (SW-620 colon) of the same compound?
A: > 100 µM

Q: And the TGI (OVCAR-8 ovarian)?
A: > 100 µM

Q: And the TGI (OVCAR-5 ovarian)?
A: > 100 µM

Q: And the TGI (K-562 leukemia)?
A: > 100 µM

Q: What about the TGI (NCI-H23 lung) of the same compound?
A: > 100 µM

Q: What about the TGI (A498 renal) of the same compound?
A: > 100 µM

Q: What about the TGI (IGROV1 ovarian) of the same compound?
A: > 100 µM

Q: What about the TGI (SNB-75 CNS) of the same compound?
A: > 100 µM

Q: And the TGI (A549 NSCLC)?
A: > 100 µM

Q: What about the TGI (MALME-3M melanoma) of the same compound?
A: > 100 µM

Q: And the TGI (RXF-631 renal)?
A: > 100 µM

Q: And the TGI (UO-31 renal)?
A: > 100 µM

Q: With `N#CC(C(=N/NC(N)=S)/C(=N\NC(N)=S)C(C#N)c1ccccc1)c1ccccc1` (stereo not given) as the compound, how does the TGI (SF-539 CNS) read?
A: > 10 µM

Q: And the TGI (UACC-62 melanoma)?
A: > 10 µM

Q: And the TGI (KM12 colon)?
A: > 10 µM

Q: And the TGI (DMS 273 small cell lung)?
A: > 10 µM

Q: And the TGI (HCT-15 colon)?
A: > 10 µM

Q: What about the TGI (SK-MEL-2 melanoma) of the same compound?
A: > 10 µM

Q: And the TGI (HCT-116 colon)?
A: > 10 µM

Q: What about the TGI (M14 melanoma) of the same compound?
A: > 10 µM

Q: What about the TGI (SF-295 CNS) of the same compound?
A: > 10 µM

Q: And the TGI (DMS 114 small cell lung)?
A: > 10 µM

Q: What about the TGI (MOLT-4 leukemia) of the same compound?
A: > 10 µM

Q: And the TGI (HT29 colon)?
A: > 10 µM

Q: And the TGI (HCC-2998 colon)?
A: > 10 µM

Q: And the TGI (SK-OV-3 ovarian)?
A: > 10 µM

Q: And the TGI (786-0 renal)?
A: > 10 µM

Q: And the TGI (HL-60(TB) leukemia)?
A: > 10 µM

Q: And the TGI (NCI-H226 lung)?
A: > 10 µM

Q: And the TGI (CCRF-CEM leukemia)?
A: > 10 µM

Q: What about the TGI (SN12C renal) of the same compound?
A: > 10 µM

Q: And the TGI (HOP-62 NSCLC)?
A: > 10 µM

Q: What about the TGI (DLD-1 colon) of the same compound?
A: > 10 µM

Q: And the TGI (SK-MEL-28 melanoma)?
A: > 10 µM

Q: What about the TGI (SF-268 CNS) of the same compound?
A: > 10 µM

Q: And the TGI (OVCAR-3 ovarian)?
A: > 10 µM

Q: What about the TGI (ACHN renal) of the same compound?
A: > 10 µM

Q: And the TGI (M19-MEL melanoma)?
A: > 10 µM

Q: What about the TGI (HOP-92 NSCLC) of the same compound?
A: > 10 µM

Q: And the TGI (NCI-H460 lung)?
A: > 10 µM

Q: What about the TGI (SNB-19 CNS) of the same compound?
A: > 10 µM

Q: What about the TGI (LOX IMVI melanoma) of the same compound?
A: > 10 µM

Q: And the TGI (LXFL 529 NSCLC)?
A: > 10 µM

Q: And the TGI (OVCAR-4 ovarian)?
A: > 10 µM

Q: What about the TGI (COLO 205 colon) of the same compound?
A: > 10 µM

Q: What about the TGI (NCI-H522 lung) of the same compound?
A: > 10 µM

Q: What about the TGI (XF 498 CNS) of the same compound?
A: > 10 µM

Q: What about the TGI (RXF 393 renal) of the same compound?
A: > 10 µM

Q: And the TGI (U251 CNS)?
A: > 10 µM

Q: What about the TGI (RPMI-8226 leukemia) of the same compound?
A: > 10 µM

Q: What about the TGI (SNB-78 CNS) of the same compound?
A: > 10 µM

Q: And the TGI (EKVX NSCLC)?
A: > 10 µM

Q: What about the TGI (HOP-18 NSCLC) of the same compound?
A: > 10 µM

Q: And the TGI (KM20L2 colon)?
A: > 10 µM

Q: What about the TGI (TK-10 renal) of the same compound?
A: > 10 µM

Q: And the TGI (UACC-257 melanoma)?
A: > 10 µM

Q: What about the TGI (SW-620 colon) of the same compound?
A: > 10 µM

Q: And the TGI (OVCAR-8 ovarian)?
A: > 10 µM

Q: And the TGI (OVCAR-5 ovarian)?
A: > 10 µM

Q: What about the TGI (K-562 leukemia) of the same compound?
A: > 10 µM

Q: And the TGI (NCI-H23 lung)?
A: > 10 µM

Q: And the TGI (A498 renal)?
A: > 10 µM

Q: What about the TGI (SNB-75 CNS) of the same compound?
A: > 10 µM

Q: And the TGI (A549 NSCLC)?
A: > 10 µM

Q: What about the TGI (MALME-3M melanoma) of the same compound?
A: > 10 µM

Q: And the TGI (RXF-631 renal)?
A: > 10 µM

Q: And the TGI (UO-31 renal)?
A: > 10 µM
